Results published in patent publication US20170275270A1, “BENZYL SUBSTITUTED INDAZOLES” (Bayer Pharma Aktiengesellschaft, priority 2014, published 2017).
pIC50: −log10 of the molar value.

The compounds below were run against T1, catalytic domain of human Bub1 (amino acids 704-1085) (Homo sapiens, UniProt O43683) (assay: Bub1 kinase assay (TR-FRET)). Conditions: 10 μM ATP, read-out: Biological Assay 1: Bub1 kinase assay median IC50.
T1 construct: catalytic domain of human Bub1 (amino acids 704-1085); His6 (N); made in house; host or cells: Hi5 insect cells
Assay type: biochemical
Method: To this end, 100-fold concentrated compound solutions (in DMSO) were previously prepared by serial dilution (1:3.4) of 2 mM stocks in a clear low volume 384-well source microtiter plate (Greiner Bio-One, Frickenhausen, Germany), from which 50 nL of compounds were transferred into a black low volume test microtiter plate from the same supplier. […] The resulting mixture (5 μL final volume) was incubated at 22° C. during 60 min., and the reaction was stopped by the addition of 5 μL of an aqueous EDTA-solution (50 mM EDTA, in 100 mM HEPES pH 7.5 and 0.2% (w/v) bovine serum albumin) which also contained the TR-FRET detection reagents (0.2 μM streptavidin-XL665 [Cisbio Bioassays, Codolet, France] and 1 nM anti-phosho-Serine antibody [Merck Millipore, cat. #35-001] and 0.4 nM LANCE EU-W1024 labeled anti-mouse IgG antibody [Perkin-Elmer, product no. AD0077, alternatively a Terbium-cryptate-labeled anti-mouse IgG antibody from Cisbio Bioassays can be used]). The stopped reaction mixture was further incubated 1 h at 22° C. in order to allow the formation of complexes between peptides and detection reagents. Subsequently, the amount of product was evaluated by measurement of the resonance energy transfer from the Eu-chelate-antibody complex recognizing the Phosphoserine residue to the streptavidin-XL665 bound to the biotin moiety of the peptide. […] IC50 values were calculated by fitting the normalized inhibition data to a 4-parameter logistic equation (Minimum, Maximum, IC50, Hill; Y=Max+(Min−Max)/(1+(X/IC50) Hill)).

T1 sequence (O43683 704-1085): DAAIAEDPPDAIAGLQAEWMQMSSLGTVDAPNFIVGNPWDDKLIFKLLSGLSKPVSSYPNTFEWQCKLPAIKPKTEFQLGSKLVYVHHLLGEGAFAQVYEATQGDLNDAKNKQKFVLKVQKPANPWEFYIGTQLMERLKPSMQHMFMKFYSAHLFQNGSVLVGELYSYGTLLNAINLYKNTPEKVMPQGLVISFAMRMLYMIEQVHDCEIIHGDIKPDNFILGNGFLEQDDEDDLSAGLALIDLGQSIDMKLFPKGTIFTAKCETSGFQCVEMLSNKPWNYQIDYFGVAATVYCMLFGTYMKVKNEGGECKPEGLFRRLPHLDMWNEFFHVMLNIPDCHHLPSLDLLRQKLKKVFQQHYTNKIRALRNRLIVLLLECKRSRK

pIC50 | Structure (SMILES)
8.06 | COCCOc1cc(F)c(Cn2nc(-c3ncc(C)c(Nc4ccncc4OC)n3)c3ccccc32)c(F)c1 [Example 2-2-47, 2-{1-[2,6-difluoro-4-(2-methoxyethoxy)benzyl]-1H-indazol-3-yl}-N-(3-methoxypyridin-4-yl)-5-methylpyrimidin-4-amine]
5.49 | Cc1cc(Nc2cc(C(C)C)nc(-c3nn(Cc4c(F)cc(OCCO)cc4F)c4ccccc34)n2)c(C)cn1 [Example 2-6-30, 2-{4-[(3-{4-[(2,5-dimethylpyridin-4-yl)amino]-6-isopropylpyrimidin-2-yl}-1H-indazol-1-yl)methyl]-3,5-difluorophenoxy} ethanol]

Same assay, conditions: Biological Assay 1: Bub1 kinase assay median IC50, 10 μM ATP

pIC50 | Structure (SMILES)
7.96 | CCOc1cc(F)c(Cn2nc(-c3ncc(CCSC)c(Nc4ccncc4)n3)c3ccccc32)c(F)c1 [Example 2-2-1, 2-[1-(4-ethoxy-2,6-difluorobenzyl)-1H-indazol-3-yl]-5-[2-(methylsulfanyl)ethyl]-N-(pyridin-4-yl)pyrimidin-4-amine]
7.92 | CCOc1cc(F)c(Cn2nc(-c3ncc(CCCSC)c(Nc4ccncc4)n3)c3ccccc32)c(F)c1 [Example 2-2-2, 2-[1-(4-ethoxy-2,6-difluorobenzyl)-1H-indazol-3-yl]-5-[3-(methylsulfanyl)propyl]-N-(pyridin-4-yl)pyrimidin-4-amine]
7.89 | CCOc1cc(F)c(Cn2nc(-c3ncc(C)c(Nc4ccncc4)n3)c3ccccc32)c(F)c1 [Example 2-2-4, 2-[1-(4-ethoxy-2,6-difluorobenzyl)-1H-indazol-3-yl]-5-methyl-N-(pyridin-4-yl)pyrimidin-4-amine]
8.00 | CCOc1cc(F)c(Cn2nc(-c3ncc(CNC=O)c(Nc4ccncc4)n3)c3ccccc32)c(F)c1 [Example 2-2-8, N-({2-[1-(4-ethoxy-2,6-difluorobenzyl)-1H-indazol-3-yl]-4-(pyridin-4-ylamino)pyrimidin-5-yl}methyl)formamide]
7.92 | CCOc1cc(F)c(Cn2nc(-c3ncc(CCOC)c(Nc4ccncc4)n3)c3ccccc32)c(F)c1 [Example 2-2-9, 2-[1-(4-ethoxy-2,6-difluorobenzyl)-1H-indazol-3-yl]-5-(2-methoxyethyl)-N-(pyridin-4-yl)pyrimidin-4-amine]
7.70 | CCOc1cc(F)c(Cn2nc(-c3ncc(CCCOC)c(Nc4ccncc4C(=O)O)n3)c3ccccc32)c(F)c1 [Example 2-2-10, 4-({2-[1-(4-ethoxy-2,6-difluorobenzyl)-1H-indazol-3-yl]-5-(3-methoxypropyl)pyrimidin-4-yl}amino)nicotinic acid]
7.77 | CCOc1cc(F)c(Cn2nc(-c3ncc(CCCOC)c(Nc4ccncc4)n3)c3ccccc32)c(F)c1 [Example 2-2-11, 2-[1-(4-ethoxy-2,6-difluorobenzyl)-1H-indazol-3-yl]-5-(3-methoxypropyl)-N-(pyridin-4-yl)pyrimidin-4-amine]
7.82 | CCOc1cc(F)c(Cn2nc(-c3ncc(CCCN4CCOCC4)c(Nc4ccncc4)n3)c3ccccc32)c(F)c1 [Example 2-2-13, 2-[1-(4-ethoxy-2,6-difluorobenzyl)-1H-indazol-3-yl]-5-[3-(morpholin-4-yl)propyl]-N-(pyridin-4-yl)pyrimidin-4-amine]
7.85 | CCOc1cc(F)c(Cn2nc(-c3ncc(CC4OCCO4)c(Nc4ccncc4)n3)c3ccccc32)c(F)c1 [Example 2-2-15, 5-(1,3-dioxolan-2-ylmethyl)-2-[1-(4-ethoxy-2,6-difluorobenzyl)-1H-indazol-3-yl]-N-(pyridin-4-yl)pyrimidin-4-amine]
7.24 | CCOc1cc(F)c(Cn2nc(-c3ncc(CCCCN4CC(F)(F)C4)c(Nc4ccncc4)n3)c3ccccc32)c(F)c1 [Example 2-2-20, 5-[4-(3,3-difluoroazetidin-1-yl)butyl]-2-[1-(4-ethoxy-2,6-difluorobenzyl)-1H-indazol-3-yl]-N-(pyridin-4-yl)pyrimidin-4-amine]
8.43 | COCCOc1cc(F)c(Cn2nc(-c3ncc(C4CC4)c(Nc4ccncc4OC)n3)c3ccccc32)c(F)c1 [Example 2-2-48, 5-cyclopropyl-2-{1-[2,6-difluoro-4-(2-methoxyethoxy)benzyl]-1H-indazol-3-yl}-N-(3-methoxypyridin-4-yl)pyrimidin-4-amine]
8.05 | CCOc1cc(F)c(Cn2nc(-c3ncc(CS(C)(=O)=O)c(Nc4ccncc4)n3)c3ccccc32)c(F)c1 [Example 2-3-3, 2-[1-(4-ethoxy-2,6-difluorobenzyl)-1H-indazol-3-yl]-5-[(methylsulfonyl)methyl]-N-(pyridin-4-yl)pyrimidin-4-amine]
6.32 | CS(=O)(=O)Cc1cnc(-c2nn(Cc3c(F)cc(OCCO)cc3F)c3ccccc23)nc1N(CCO)c1ccncc1 [Example 2-4-4, 2-[(2-{1-[2,6-difluoro-4-(2-hydroxyethoxy)benzyl]-1H-indazol-3-yl}-5-[(methylsulfonyl)methyl]pyrimidin-4-yl)(pyridin-4-yl)amino]ethanol]
8.01 | Nc1cc(Nc2nc(-c3nn(Cc4c(F)cc(OCCO)cc4F)c4ccccc34)nc3c2CCC3)ccn1 [Example 2-4-7, 2-{4-[(3-{4-[(2-aminopyridin-4-yl)amino]-6,7-dihydro-5H-cyclopenta[d]pyrimidin-2-yl}-1H-indazol-1-yl)methyl]-3,5-difluorophenoxy}ethanol]
7.96 | CCOc1cc(F)c(Cn2nc(-c3nc(Nc4ccnc(NC(C)=O)c4)cc([C@H](C)O)n3)c3ccccc32)c(F)c1 [Example 2-4-9, N-[4-({2-[1-(4-ethoxy-2,6-difluorobenzyl)-1H-indazol-3-yl]-6-[(1S)-1-hydroxyethyl]pyrimidin-4-yl}amino)pyridin-2-yl]acetamide]
8.11 | Cc1cnccc1Nc1nc(-c2nn(Cc3c(F)cc(O)cc3F)c3ccccc23)nc2c1CCC2 [Example 2-6-5, 3,5-difluoro-4-[(3-{4-[(3-methylpyridin-4-yl)amino]-6,7-dihydro-5H-cyclopenta[d]pyrimidin-2-yl}-1H-indazol-1-yl)methyl]phenol]
8.03 | CC(=O)Nc1cc(Nc2nc(-c3nn(Cc4c(F)cc(O)cc4F)c4ccccc34)nc3c2CCC3)ccn1 [Example 2-6-7, N-[4-({2-[1-(2,6-difluoro-4-hydroxybenzyl)-1H-indazol-3-yl]-6,7-dihydro-5H-cyclopenta[d]pyrimidin-4-yl}amino)pyridin-2-yl]acetamide]
7.34 | Cc1cc(Nc2nc(-c3nn(Cc4c(F)cc(O)cc4F)c4ccccc34)nc3c2CCC3)ccn1 [Example 2-6-8, 3,5-difluoro-4-[(3-{4-[(2-methylpyridin-4-yl)amino]-6,7-dihydro-5H-cyclopenta[d]pyrimidin-2-yl}-1H-indazol-1-yl)methyl]phenol]
7.85 | Oc1cc(F)c(Cn2nc(-c3nc4c(c(Nc5ccncn5)n3)CCC4)c3ccccc32)c(F)c1 [Example 2-6-11, 3,5-difluoro-4-({3-[4-(pyrimidin-4-ylamino)-6,7-dihydro-5H-cyclopenta[d]pyrimidin-2-yl]-1H-indazol-1-yl}methyl)phenol]
7.38 | COc1cnccc1Nc1nc(-c2nn(Cc3c(F)cc(OCCO)cc3F)c3ccccc23)nc2c1CCC(C)(C)C2 [Example 2-6-26, 2-{3,5-difluoro-4-[(3-{4-[(3-methoxypyridin-4-yl)amino]-7,7-dimethyl-5,6,7,8-tetrahydroquin-azolin-2-yl}-1H-indazol-1-yl)methyl]phenoxy}ethanol]
6.29 | Cc1nccc(Nc2cc(C(C)C)nc(-c3nn(Cc4c(F)cc(OCCO)cc4F)c4ccccc34)n2)n1 [Example 2-6-28, 2-{3,5-difluoro-4-[(3-{4-isopropyl-6-[(2-methylpyrimidin-4-yl)amino]pyrimidin-2-yl}-1H-indazol-1-yl)methyl]phenoxy}ethanol]
6.68 | Cc1nccc(Nc2nc(-c3nn(Cc4c(F)cc(OCCO)cc4F)c4ccccc34)nc(C)c2F)n1 [Example 2-6-32, 2-{3,5-difluoro-4-[(3-{5-fluoro-4-methyl-6-[(2-methylpyrimidin-4-yl)amino]pyrimidin-2-yl}-1H-indazol-1-yl)methyl]phenoxy}ethanol]
8.03 | OCCOc1cc(F)c(Cn2nc(-c3nc4c(c(Nc5ccncn5)n3)CN(CC(F)(F)F)C4)c3ccccc32)c(F)c1 [Example 2-6-40, 2-[3,5-difluoro-4-({3-[4-(pyrimidin-4-ylamino)-6-(2,2,2-trifluoroethyl)-6,7-dihydro-5H-pyrrolo[3,4-d]pyrimidin-2-yl]-1H-indazol-1-yl}methyl)phenoxy]ethanol]
7.85 | COc1cnccc1Nc1nc(-c2nn(Cc3c(F)cc(OCCO)cc3F)c3ccccc23)nc2c1CN(CC(F)(F)F)C2 [Example 2-6-41, 2-{3,5-difluoro-4-[(3-{4-[(3-methoxypyridin-4-yl)amino]-6-(2,2,2-trifluoroethyl)-6,7-dihydro-5H-pyrrolo[3,4-d]pyrimidin-2-yl}-1H-indazol-1-yl)methyl]phenoxy}ethanol]
